Test results published in US20260116910A1, “POLYCYCLIC COMPOUNDS AND METHODS THEREOF” (HEPAITECH (BEIJING) BIOPHARMA TECHNOLOGY CO., LTD., priority 2021, published 2026).

How the values were obtained:
Format in all cases: cell-based
human TGR5 = biological target: T1, human TGR5 (Homo sapiens, UniProt Q8TDU6); assay: TGR5 agonist assessment, CRE-NanoLuc reporter in HEK293T cells
T1 sequence (Q8TDU6 1-330): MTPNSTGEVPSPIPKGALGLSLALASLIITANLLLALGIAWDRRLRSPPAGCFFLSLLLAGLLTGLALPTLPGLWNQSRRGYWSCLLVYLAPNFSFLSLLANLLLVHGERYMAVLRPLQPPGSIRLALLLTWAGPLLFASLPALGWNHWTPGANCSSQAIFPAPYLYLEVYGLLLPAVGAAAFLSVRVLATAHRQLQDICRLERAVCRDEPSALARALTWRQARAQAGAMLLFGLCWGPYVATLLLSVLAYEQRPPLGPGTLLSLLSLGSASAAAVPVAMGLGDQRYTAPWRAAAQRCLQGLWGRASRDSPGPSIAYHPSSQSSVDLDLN
Protocol: Cells were detached by centrifuging (1000 rpm, 3 min). The pellet was re-suspended in medium, and cell density was adjusted to about 1×10^6 cells/mL. […] Cells in the microplates were cultured overnight.
Culture medium was replaced, and compounds were added to the wells. 0.01% DMSO (v/v) served as negative control. Plates were incubated at 37° C. in 5% CO2 for 24 hr.
In the following day, a 10 μL aliquot of cell culture medium was removed from each well and combined with 40 μL culture medium plus […] assay buffer (containing 20 mM of the luciferase substrate coelenterazine). After 5 min incubation, luminescence was measured using an EnVision plate reader (PerkinElmer).
In some embodiments, gradient diluted solutions of several concentrations were used to treat cells and corresponding responses were used to fit sigmoid function and to derive EC50 in Origin.

human FXR (NR1H4) = biological target: T2, human FXR (NR1H4) (Homo sapiens, UniProt Q96RI1); assay: Human FXR (NR1H4) agonist assessment, FXRE-NanoLuc reporter in HEK293T cells; conditions: FXR activation, HEK293T FXRE-NanoLuc reporter, 24 hr; for EC50: read-out: EC50
T2 sequence (Q96RI1 1-476 isoform Q96RI1-1): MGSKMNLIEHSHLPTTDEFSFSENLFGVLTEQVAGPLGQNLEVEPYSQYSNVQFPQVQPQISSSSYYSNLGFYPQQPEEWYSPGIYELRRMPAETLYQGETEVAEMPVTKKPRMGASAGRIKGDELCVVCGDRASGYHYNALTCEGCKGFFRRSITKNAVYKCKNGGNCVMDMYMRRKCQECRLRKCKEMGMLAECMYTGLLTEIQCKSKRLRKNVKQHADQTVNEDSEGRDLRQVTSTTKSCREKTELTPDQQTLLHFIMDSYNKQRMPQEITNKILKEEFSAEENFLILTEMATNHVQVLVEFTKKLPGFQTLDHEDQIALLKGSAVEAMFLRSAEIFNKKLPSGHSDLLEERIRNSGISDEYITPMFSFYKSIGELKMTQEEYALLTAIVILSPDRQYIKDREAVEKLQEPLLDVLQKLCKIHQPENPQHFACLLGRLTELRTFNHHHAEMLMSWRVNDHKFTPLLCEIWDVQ
Outline: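 Read-out was NanoLuc luminescence in culture medium, measured 5 min after adding coelenterazine. Cells were HEK293T stably carrying human FXR and an FXRE reporter, exposed to compound for 24 hr at 37 °C. Vehicle was 0.01% DMSO. EC50 was obtained from sigmoid fits of gradient dilutions.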

MRGPRX4 = MRGPRX4 (Homo sapiens, UniProt Q96LA9); assay: MRGPRX4 activation, Fluo-8 Ca2+ FLIPR assay in HEK293T cells stably expressing MRGPRX4; parameters: key to MRGPRX4 activation, Average / MRGPRX4 activation, Ave.: fluorescence change dF/F0; conditions: for EC50: MRGPRX4 activation, Ca2+ fluorescence, no activation in tested range reported as III, read-out: Activity (EC50 μM)
Outline: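 Response measured as dF/F0: 30 s baseline, then 150 s after compound addition on FLIPR Tetra, in HHBS after 40-60 min room-temperature loading with 2 μM Fluo-8 AM.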

MRGPRX4, sequence (Q96LA9 whole entry): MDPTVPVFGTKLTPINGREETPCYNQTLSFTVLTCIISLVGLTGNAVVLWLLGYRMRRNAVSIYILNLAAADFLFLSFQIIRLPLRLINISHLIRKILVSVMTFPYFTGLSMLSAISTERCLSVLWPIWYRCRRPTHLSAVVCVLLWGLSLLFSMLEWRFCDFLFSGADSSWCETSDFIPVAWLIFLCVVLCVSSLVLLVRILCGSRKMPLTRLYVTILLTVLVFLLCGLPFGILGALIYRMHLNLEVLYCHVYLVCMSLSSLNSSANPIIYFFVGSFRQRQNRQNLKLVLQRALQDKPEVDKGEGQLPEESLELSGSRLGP

CC[C@H]1[C@@H](O)[C@@H]2[C@H](CC[C@]3(C)[C@@H]([C@H](C)CCNC(=O)NS(=O)(=O)N(C)C)CC[C@@H]23)[C@@]2(C)CCCC[C@@H]12 [5-15]
EC50 (human TGR5): 0.013 µM | Efficacy (maximum measured induction of NanoLuc, normalized to CDCA set as 100%) (human FXR (NR1H4)): C (100%<efficacy <=300%) | EC50 (human FXR (NR1H4)): < 1 µM | MRGPRX4 activation, Average (MRGPRX4; E3-6-2, 1st of 6 concentration columns (head not in rows shown)): 0.087 | MRGPRX4 activation, Average (MRGPRX4; E3-6-2, 3rd of 6 concentration columns (head not in rows shown)): 0.013 | MRGPRX4 activation, Average (MRGPRX4; E3-6-2, 6th of 6 concentration columns (head not in rows shown)): 0.010 | MRGPRX4 activation, Average (MRGPRX4; E3-6-2, concentration not given): 0.010 | EC50 (MRGPRX4): > 100 µM

CC[C@H]1[C@@H](O)[C@@H]2[C@H](CC[C@]3(C)[C@@H]([C@H](C)CCNC(=O)NS(=O)(=O)c4ccc(C(C)(C)CF)cc4)CC[C@@H]23)[C@@]2(C)CC[C@H](F)C[C@@H]12 [9-1]
Efficacy (maximum measured induction of NanoLuc, normalized to CDCA set as 100%) (human FXR (NR1H4)): B (300%<efficacy <=400%) | EC50 (human FXR (NR1H4)): < 1 µM | MRGPRX4 activation, Average (MRGPRX4; E3-9, Conc. (Log[M]) −4.0): 0.019 | MRGPRX4 activation, Average (MRGPRX4; E3-9, Conc. (Log[M]) −4.5): 0.021 | MRGPRX4 activation, Average (MRGPRX4; E3-9, Conc. (Log[M]) −5.0): 0.012 | MRGPRX4 activation, Average (MRGPRX4; E3-9, Conc. (Log[M]) −5.4): 0.018 | MRGPRX4 activation, Average (MRGPRX4; E3-9, Conc. (Log[M]) −5.9): 0.014 | MRGPRX4 activation, Average (MRGPRX4; E3-9, Conc. (Log[M]) −6.4): 0.019 | MRGPRX4 activation, Average (MRGPRX4; E3-9, Conc. (Log[M]) −6.9): 0.016 | MRGPRX4 activation, Average (MRGPRX4; E3-9, Conc. (Log[M]) −7.3): 0.016 | MRGPRX4 activation, Average (MRGPRX4; E3-9, Conc. (Log[M]) −7.8): 0.012 | MRGPRX4 activation, Average (MRGPRX4; E3-9, Conc. (Log[M]) −8.3): 0.018 | EC50 (MRGPRX4): > 100 µM

CC[C@H]1[C@@H](O)[C@@H]2[C@H](CC[C@]3(C)[C@@H]([C@H](C)CCNC(=O)NS(=O)(=O)c4ccc(C(C)(C)C)cc4)CC[C@@H]23)[C@@]2(C)CCCC[C@@H]12 [5-1]
Efficacy (maximum measured induction of NanoLuc, normalized to CDCA set as 100%) (human FXR (NR1H4)): B (300%<efficacy <=400%) | EC50 (human FXR (NR1H4)): < 1 µM | EC50 (MRGPRX4): > 100 µM

CC(=O)CC[C@@H](C)[C@H]1CC[C@H]2[C@@H]3CC[C@@H]4CCCC[C@]4(C)[C@H]3CC[C@]12C [compound 21]
Efficacy (maximum measured induction of NanoLuc, normalized to CDCA set as 100%) (human FXR (NR1H4)): C (100%<efficacy <=300%) | EC50 (human FXR (NR1H4)): 1 to 10 µM | EC50 (MRGPRX4): > 100 µM

CC[C@H]1[C@@H](O)[C@@H]2[C@H](CC[C@]3(C)[C@@H]([C@H](C)CCNC(=O)NS(=O)(=O)c4ccc(C(C)(CO)CO)cc4)CC[C@@H]23)[C@@]2(C)CCCC[C@@H]12 [5-22]
Efficacy (maximum measured induction of NanoLuc, normalized to CDCA set as 100%) (human FXR (NR1H4)): C (100%<efficacy <=300%) | EC50 (human FXR (NR1H4)): < 1 µM | MRGPRX4 activation, fluorescence change (dF/F0), Average (MRGPRX4; Conc. (Log[M]) −4.0): 0.020 | MRGPRX4 activation, fluorescence change (dF/F0), Average (MRGPRX4; Conc. (Log[M]) −4.5): 0.018 | MRGPRX4 activation, fluorescence change (dF/F0), Average (MRGPRX4; Conc. (Log[M]) −5.0): 0.013 | MRGPRX4 activation, fluorescence change (dF/F0), Average (MRGPRX4; Conc. (Log[M]) −5.4): 0.013 | MRGPRX4 activation, fluorescence change (dF/F0), Average (MRGPRX4; Conc. (Log[M]) −5.9): 0.011 | MRGPRX4 activation, fluorescence change (dF/F0), Average (MRGPRX4; Conc. (Log[M]) −6.4): 0.016 | MRGPRX4 activation, fluorescence change (dF/F0), Average (MRGPRX4; Conc. (Log[M]) −6.9): 0.016 | MRGPRX4 activation, fluorescence change (dF/F0), Average (MRGPRX4; Conc. (Log[M]) −7.3): 0.018 | MRGPRX4 activation, fluorescence change (dF/F0), Average (MRGPRX4; Conc. (Log[M]) −7.8): 0.014 | MRGPRX4 activation, fluorescence change (dF/F0), Average (MRGPRX4; Conc. (Log[M]) −8.3): 0.016 | EC50 (MRGPRX4): > 100 µM
